Test systems include CAKI-1 renal; KM12 colon; M14 melanoma; OVCAR-5 ovarian; SK-MEL-2 melanoma; SK-MEL-28 melanoma; SK-MEL-5 melanoma; SNB-75 CNS; U251 CNS; SF-539 CNS.
Holding throughout (test): inhibition of tumour cell growth, NCI panel, 48 h

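Following 48 hours of exposure in 96-well plates, responses at five concentrations were used to interpolate endpoints linearly. The concentration for 50% growth inhibition is given as GI50. TGI: total growth inhibition.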 Where only a bound is given, the exact number is not on record here.

Take `O=C1NC(NNc2ccccc2)=N/C1=C\c1ccco1`: the TGI with CAKI-1 renal was 30.6 µM; in the experiment on KM12 colon it was 54.6 µM; in the experiment with M14 melanoma, 44.5 µM; with OVCAR-5 ovarian it was above 100 µM; in the experiment with SK-MEL-2 melanoma, 48.2 µM; in the experiment on SK-MEL-28 melanoma it was 68.5 µM. In addition, the TGI with SK-MEL-5 melanoma was above 100 µM; in the experiment with SNB-75 CNS it was above 100 µM; in the experiment with U251 CNS it was 39.8 µM.
Take `CC(=O)c1ccc(Nc2nc3ccccc3c3occc23)cc1`: the TGI is 16.1 µM with CAKI-1 renal; 44.3 µM with KM12 colon; 36.5 µM in the experiment with M14 melanoma; above 100 µM with OVCAR-5 ovarian; 53.4 µM in the experiment on SF-539 CNS; 48.6 µM in the experiment with SK-MEL-2 melanoma. Further, the TGI with SK-MEL-28 melanoma was 15.9 µM; with SK-MEL-5 melanoma it was 28.2 µM; in the experiment with U251 CNS, above 100 µM.
On to `CCOC(=O)C(C(=O)OCC)S(C)(=O)=O`, for which the TGI in the experiment with KM12 colon, in the experiment with M14 melanoma, in the experiment on OVCAR-5 ovarian, in the experiment on SF-539 CNS, in the experiment with SK-MEL-2 melanoma and with SK-MEL-28 melanoma was above 100 µM each time. For the same compound, the TGI in the experiment with SK-MEL-5 melanoma and in the experiment with U251 CNS was above 100 µM in each case.
As for `COc1cc2c(cc1OC)-c1cc3cc(OC)c(OC)cc3c(C)[n+]1CC2` (tested in a mixture with another compound), the TGI with CAKI-1 renal, in the experiment on KM12 colon, in the experiment with M14 melanoma, with OVCAR-5 ovarian, in the experiment with SF-539 CNS and in the experiment on SK-MEL-2 melanoma was above 100 µM in each case. For the same compound, the TGI in the experiment with SK-MEL-28 melanoma, with SK-MEL-5 melanoma and in the experiment on U251 CNS was above 100 µM each time.
`CCOC(=O)NC(C(F)(F)F)(C(F)(F)F)P(=O)(OCC)OCC`: the TGI in the experiment on KM12 colon is above 100 µM; with M14 melanoma, above 100 µM; with OVCAR-5 ovarian, above 100 µM; in the experiment on SK-MEL-28 melanoma it was above 100 µM; with SNB-75 CNS, above 100 µM; in the experiment on U251 CNS it was 79.5 µM.
Regarding `Cn1cc(-c2csc(-c3cn(CCCN4CCCCC4)c4ccc(Br)cc34)n2)c2cccnc21`, the GI50 is 1.89 µM in the experiment on KM12 colon; 1.57 µM in the experiment with OVCAR-5 ovarian; 1.75 µM in the experiment with SF-539 CNS; 1.94 µM with SK-MEL-2 melanoma; 1.71 µM in the experiment on SK-MEL-28 melanoma; 1.86 µM in the experiment with SK-MEL-5 melanoma. Also, the GI50 in the experiment on SNB-75 CNS was 1.44 µM. The TGI is 3.54 µM in the experiment with KM12 colon; 3.01 µM in the experiment on OVCAR-5 ovarian; 3.2 µM in the experiment with SF-539 CNS; 3.74 µM with SK-MEL-2 melanoma; 3.2 µM with SK-MEL-28 melanoma; 3.41 µM with SK-MEL-5 melanoma. In the experiment with SNB-75 CNS, the TGI is 5.8 µM.
`CN(C)C1(N(C)C)Oc2c(c(=O)n(C)c(=O)n2C)C(c2ccc(F)cc2)C1(F)F` (configuration not stated): the TGI with CAKI-1 renal, in the experiment with KM12 colon, with M14 melanoma, with OVCAR-5 ovarian, in the experiment with SK-MEL-2 melanoma and with SK-MEL-28 melanoma was above 100 µM in each case. The TGI in the experiment with SK-MEL-5 melanoma, in the experiment on SNB-75 CNS and in the experiment with U251 CNS was above 100 µM throughout.
On to `O=S1(=O)OCCOS(=O)(=O)C1(Br)Br`, for which the TGI in the experiment on CAKI-1 renal, in the experiment on KM12 colon, with M14 melanoma, in the experiment on SF-539 CNS, with SK-MEL-2 melanoma and with SK-MEL-28 melanoma was above 100 µM each time. Further, the TGI with SK-MEL-5 melanoma and in the experiment on SNB-75 CNS was above 100 µM each time.
For the compound `O=c1[nH]nc(-c2ccccc2)n1-n1cccc1`, the TGI in the experiment with CAKI-1 renal, in the experiment with KM12 colon, in the experiment with M14 melanoma, in the experiment on OVCAR-5 ovarian, in the experiment on SK-MEL-2 melanoma and in the experiment on SK-MEL-28 melanoma was above 100 µM each time. The TGI in the experiment on SK-MEL-5 melanoma, in the experiment on SNB-75 CNS and with U251 CNS was above 100 µM throughout.
As to `COc1c(-c2ccc(F)cc2)oc2c(CC(=O)O)cccc2c1=O`, the TGI was 71.5 µM in the experiment with CAKI-1 renal; above 100 µM in the experiment with M14 melanoma; above 100 µM in the experiment on OVCAR-5 ovarian; above 100 µM in the experiment on SF-539 CNS; above 100 µM in the experiment with SK-MEL-2 melanoma; above 100 µM in the experiment with SK-MEL-5 melanoma. The TGI in the experiment with U251 CNS is above 100 µM.
`COC(=O)CCc1cc(OC)c2oc(-c3ccc(OC)c(OC)c3)c(CO)c2c1`: the TGI in the experiment on CAKI-1 renal, in the experiment on KM12 colon, in the experiment with M14 melanoma, with OVCAR-5 ovarian, with SF-539 CNS and in the experiment with SK-MEL-2 melanoma was above 100 µM throughout. For the same compound, the TGI in the experiment with SK-MEL-28 melanoma, in the experiment with SK-MEL-5 melanoma and with U251 CNS was above 100 µM in each case.
Turning to `COC(=O)N1C2C(C[C@@]1(C)C(=O)OC)c1ccccc1N2S(=O)(=O)c1ccccc1` (some centres not stated), the TGI in the experiment on CAKI-1 renal, with KM12 colon, in the experiment on M14 melanoma, with OVCAR-5 ovarian, in the experiment on SK-MEL-2 melanoma and in the experiment with SK-MEL-28 melanoma was above 100 µM in each case. For the same compound, the TGI with SK-MEL-5 melanoma and in the experiment with SNB-75 CNS was above 100 µM throughout.
Turning to `CCCC1(N2C(=O)c3ccc4c5c(ccc(c35)C2=O)N(C2(CCC)CCCCC2)C4=O)CCCCC1`, the TGI with CAKI-1 renal, in the experiment on KM12 colon, with M14 melanoma, with OVCAR-5 ovarian, with SF-539 CNS and with SK-MEL-2 melanoma was above 100 µM each time. The TGI in the experiment on SK-MEL-28 melanoma, in the experiment with SK-MEL-5 melanoma and in the experiment on U251 CNS was above 100 µM in each case.
Regarding `Cc1nc2c(n1Cc1ccc(F)cc1)C(=O)c1ccccc1C2=O`, the TGI in the experiment with KM12 colon was above 100 µM; in the experiment on M14 melanoma, above 100 µM; in the experiment with SF-539 CNS, above 100 µM; in the experiment on SK-MEL-2 melanoma, above 100 µM; in the experiment with SK-MEL-28 melanoma it was above 100 µM; with SK-MEL-5 melanoma, 24.7 µM. Besides, the TGI with SNB-75 CNS and with U251 CNS was above 100 µM each time.
Turning to `COC1=C(OC)C(=O)C(C/C=C/c2c(Cl)nc3sccn23)=C(C)C1=O`, the TGI in the experiment with CAKI-1 renal is 50.7 µM; with KM12 colon, 44.4 µM; with M14 melanoma it was 32.5 µM; in the experiment with OVCAR-5 ovarian it was 38 µM; in the experiment on SF-539 CNS, 31.7 µM; in the experiment with SK-MEL-2 melanoma, 48.3 µM. The TGI with SK-MEL-28 melanoma amounted to 33.7 µM; with SK-MEL-5 melanoma, 12.9 µM; in the experiment with U251 CNS it was 25.6 µM.
Turning to `O=C(O)c1ccccc1/C=N\N(CCO)C1=NCCN1`, the TGI in the experiment on KM12 colon, in the experiment on M14 melanoma, with OVCAR-5 ovarian, in the experiment with SF-539 CNS, in the experiment on SK-MEL-2 melanoma and with SK-MEL-28 melanoma was above 100 µM each time. Moreover, the TGI in the experiment with SK-MEL-5 melanoma, in the experiment with SNB-75 CNS and in the experiment on U251 CNS was above 100 µM throughout.
Consider `CCCc1cn2c(/C=N/N=C(N)N)c(-c3ccc([N+](=O)[O-])cc3)nc2s1`, for which the TGI with CAKI-1 renal is 3.1 µM; in the experiment on M14 melanoma, 3.18 µM; in the experiment with OVCAR-5 ovarian, 3.14 µM; in the experiment with SF-539 CNS it was 9.84 µM; in the experiment on SK-MEL-2 melanoma, 3.55 µM; in the experiment with SK-MEL-28 melanoma, 4.66 µM. For the same compound, the results for the TGI in the experiment on SK-MEL-5 melanoma and with U251 CNS were 54 µM and 1.39 µM, respectively.
For `O=C(/C=C/c1ccc(Cl)cc1)c1nc2ccccc2[nH]1`, the TGI is 10.1 µM in the experiment with CAKI-1 renal; 13.3 µM in the experiment with KM12 colon; above 100 µM in the experiment with M14 melanoma; above 100 µM with OVCAR-5 ovarian; 50.6 µM in the experiment on SF-539 CNS; above 100 µM with SK-MEL-2 melanoma. The TGI in the experiment with SK-MEL-28 melanoma was above 100 µM; in the experiment with SK-MEL-5 melanoma, above 100 µM; with SNB-75 CNS, 43.8 µM.
On to `COc1cc(Cn2c3ccccc3c3cc(C)cc(OC)c32)cc2c1[nH]c1ccccc12`, for which the results for the GI50 in the experiment on KM12 colon, with M14 melanoma and in the experiment with SF-539 CNS were 10.2 µM, 6.27 µM and 9.83 µM, respectively. Moreover, the TGI is above 25 µM with KM12 colon; 20.2 µM in the experiment on M14 melanoma; above 25 µM in the experiment with OVCAR-5 ovarian; above 25 µM in the experiment on SF-539 CNS; above 25 µM in the experiment with SK-MEL-2 melanoma; above 25 µM with SK-MEL-28 melanoma. In addition, the TGI in the experiment with SK-MEL-5 melanoma and in the experiment with U251 CNS was above 25 µM in each case.
As to `CC(=O)Oc1ccc(C)c2c1[C@H]1CC[C@]3(C)[C@@H](OC(C)=O)CC[C@H]3[C@@H]1CC2`, the TGI is 35.1 µM in the experiment on KM12 colon; 32.2 µM with M14 melanoma; above 100 µM with OVCAR-5 ovarian; 38 µM in the experiment on SF-539 CNS; 33.2 µM with SK-MEL-28 melanoma; 34.9 µM in the experiment with SK-MEL-5 melanoma. For the same compound, the TGI with SNB-75 CNS turned out to be 54.5 µM; in the experiment on U251 CNS it was 29.1 µM.
For the compound `C[n+]1ccc2/c(=C\C#N)c3ccccc3n21`, the TGI in the experiment on CAKI-1 renal is above 100 µM; with KM12 colon, 45.1 µM; in the experiment with M14 melanoma it was above 100 µM; in the experiment with OVCAR-5 ovarian, above 100 µM; in the experiment with SK-MEL-2 melanoma, 89.9 µM; with SK-MEL-28 melanoma, 53.5 µM. Also, the TGI in the experiment on SK-MEL-5 melanoma amounted to 35.6 µM; with U251 CNS, 72.8 µM.
Regarding `CCOC(=O)CN1C(=O)c2c(NC(=O)C(=O)O)cccc2S1(=O)=O`, the TGI with CAKI-1 renal, in the experiment on KM12 colon, in the experiment on M14 melanoma, in the experiment with OVCAR-5 ovarian, in the experiment on SK-MEL-2 melanoma and in the experiment on SK-MEL-28 melanoma was above 100 µM each time. Further, the TGI with SK-MEL-5 melanoma and with U251 CNS was above 100 µM throughout.

The values above are taken from PubChem BioAssay (NCI).
